Laboratory results published in publication PMC3112382, “Crystal structures of a halophilic archaeal malate synthase from Haloferax volcanii and comparisons with isoforms A and G” (BMC Structural Biology, 2011).

Experiments:
[1] = target: T1, H. volcanii malate synthase isoform H (hvMSH) (Haloferax volcanii, UniProt D4GTL2); test: X-ray crystal structure, […] Å; type: binding; details: ~0.15 M acetyl-CoA, ~70 mM pyruvate, 50 mM MgCl2 soak, active site
T1 construct: gene aceB; full-length native enzyme, purified from H. volcanii grown on acetate, no tag; trimer/hexamer equilibrium
T1 sequence (D4GTL2 1-433): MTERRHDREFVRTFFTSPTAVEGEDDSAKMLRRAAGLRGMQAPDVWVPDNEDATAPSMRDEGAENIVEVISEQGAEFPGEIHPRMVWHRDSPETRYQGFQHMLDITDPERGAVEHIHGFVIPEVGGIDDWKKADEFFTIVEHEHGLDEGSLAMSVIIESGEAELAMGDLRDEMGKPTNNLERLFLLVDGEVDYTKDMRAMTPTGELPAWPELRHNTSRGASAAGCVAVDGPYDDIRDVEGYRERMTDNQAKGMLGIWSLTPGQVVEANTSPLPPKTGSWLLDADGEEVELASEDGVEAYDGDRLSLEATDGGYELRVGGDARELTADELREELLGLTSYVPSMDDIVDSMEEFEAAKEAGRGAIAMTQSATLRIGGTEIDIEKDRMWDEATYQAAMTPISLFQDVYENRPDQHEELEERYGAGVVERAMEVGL

[2] = target: T1, H. volcanii malate synthase isoform H (hvMSH); test: X-ray crystal structure, […] Å; type: binding; details: ~0.1 M glyoxylate and ~0.1 M MgCl2 soak; active site, on Mg2+; second, weak glyoxylate at acetyl-CoA thioester position; low-occupancy complex (3 mM glyoxylate) is 3PUG

CC(=O)SCCNC(=O)CCNC(=O)[C@H](O)C(C)(C)COP(=O)(O)OP(=O)(O)OC[C@H]1O[C@@H](n2cnc3c(N)ncnc32)[C@H](O)[C@@H]1OP(=O)(O)O [acetyl-coenzyme A]
X-ray crystal structure, 1.95 Å ([1]; ternary complex with pyruvate): one molecule of pyruvate, one molecule of acetyl-CoA, one magnesium ion

O=CC(=O)O [glyoxylate]
X-ray crystal structure, 2.51 Å [2]: One glyoxylate molecule is bound to the Mg2+ at the active site

CC(=O)C(=O)O [pyruvate]
X-ray crystal structure, 1.95 Å ([1]; ternary complex with acetyl-CoA, glyoxylate position): one molecule of pyruvate, one molecule of acetyl-CoA, one magnesium ion
